The target of one experiment is human V1a receptor (Homo sapiens, UniProt P37288). Nature of the experiment: V1a functional assay, intracellular calcium mobilization in transfected HEK-293 cells (FLIPR). On the set-up: expressed in transfected cells; host or cells: HEK-293. To be noted: challenge 1 nM AVP; read-out: Cell-Based Functional activity V1a IC50. How it is done: (§1) V1a, V1b or V2 Functional Assay
(§2) HEK-293 cells were grown in DMEM media supplemented with 10% FBS and glutamine (Gibco BRL, Grand Island, N.Y.). Once transfected the cells were passed biweekly by trypsinization and seeded into 96 well plates at 33,000 cells per well. HEK-293 were transfected with human V1a, V1b or V2 DNA using DMRIE-C reagent from Life Technologies, Inc., Grand Island, N.Y. Cells were tested for their responsiveness to vasopressin 48 hours after transfection. Stable lines were generated by selecting cells grown in culture media containing geneticin (500 μg/ml, Life Technologies).
Intracellular calcium mobilization was measured in HEK-293 cells transfected to express either human V1a, oxytocin or V1b receptors. Cells were plated into black 96-well Packard Clear-View plates 4 to 7 days prior to use. The cells were loaded with fluo-3 AM (Molecular Probes, Inc., Eugene, Oreg.) in buffer (25 mM Hepes, 125 mM NaCl, 1 gm/l glucose, 0.1% BSA, 5 mM KCl, 0.5 mM CaCl2, 0.5 mM MgCl2, pH 7.45) containing Pluronic (Molecular Probes) Cells were incubated with 5 μM fluo-3 AM for 1 hour shielded from light at room temperature. Intracellular fluorescence was measured using FLIPR (fluorometric imaging plate reader; Molecular Devices, Inc., Sunnyvale, Calif.). The FLIPR protocol called for images to be collected at one second intervals with 50 μl of the test compound added after the initial 10 images. An additional 70 images were then taken to detect any compound agonistic activity. FLIPR then added 50 μl of agonist peptide and collected a final 40 images for quantitating compound antagonistic activity. V1a- and V1b-expressing HEK cells were challenged with 1 nM and 0.5 nM AVP, respectively. Oxytocin-expressing HEK cells were challenged with 0.5 nM oxytocin (Peninsula Labs).
(§3) The data from the cAMP accumulation and the calcium mobilization assays are expressed as IC50 values as determined from dose response curves.
In general terms: Calcium flux is commonly read through the fluorescence of an indicator in the cells.

Experiment [1] has as its target T1, human V2 receptor (Homo sapiens, UniProt P30518). As to the kind of experiment: V2 functional assay, cAMP accumulation in transfected HEK-293 cells. The format is cell-based. Details: expressed in transfected cells; host or cells: HEK-293. The conditions noted are these: for IC50: AVP 1 nM, read-out: Cell-Based Functional activity V2 IC50. How it is done:
as §1, §2
The accumulation of cAMP was measured in transfected HEK-293 expressing the human V2 receptor. The cells were cultured 4-7 days in 96-well plates. On the day of assay, cells were washed twice in assay media (DMEM/F12 containing 0.1% BSA). The cells were treated with the test compound for 5 minutes and then given AVP (1 nM) in assay media containing 1 mM isobutylmethylxanthine. After 5 minutes, 0.5 N HCl was added to disrupt the cells and solubilize cAMP. The cAMP content of 20 μl of the cell lysate in each well was measured using cAMP Flashplates (NEN Life Sciences). Data are expressed as pmol cAMP/well. While the assay is optimized to detect and quantitate antagonistic activity, agonistic activity would also be apparent at the higher concentrations of test compounds.
as §3
(cAMP levels reflect the balance of adenylyl cyclase and phosphodiesterase activity.)

Experiment [2] has as its target T1, human V2 receptor. As to the kind of experiment: V2 binding assay (3H-AVP displacement, HEK-293 membranes). Details: expressed in transfected cells; host or cells: HEK-293 (membranes). To be noted: for inhibition at 1 µM: read-out: V2@1.0, % Inh. The gist of the method: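 Membranes competed against 3H-AVP (40-87 Ci/mmol, 10,000 cpm/well) in 50 mM Tris, 5 mM MgCl2, 0.1% BSA, pH 7.5, with protease inhibitors. Incubated 1 hour at room temperature, then filtered on PEI-presoaked GF/C and scintillation counted. Non-specific binding defined with 1.25 μM AVP.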

Structures can show the parent of a compound that is named as a salt.

Five compounds from patent US6653478B2, “Substituted benzimidazol-2-ones as vasopressin receptor antagonists and neuropeptide Y modulators” (Ortho-McNeil Pharmaceutical, Inc., priority 2000, dated 2003) can be followed below.

Sequence of human V1a receptor (P37288 whole entry): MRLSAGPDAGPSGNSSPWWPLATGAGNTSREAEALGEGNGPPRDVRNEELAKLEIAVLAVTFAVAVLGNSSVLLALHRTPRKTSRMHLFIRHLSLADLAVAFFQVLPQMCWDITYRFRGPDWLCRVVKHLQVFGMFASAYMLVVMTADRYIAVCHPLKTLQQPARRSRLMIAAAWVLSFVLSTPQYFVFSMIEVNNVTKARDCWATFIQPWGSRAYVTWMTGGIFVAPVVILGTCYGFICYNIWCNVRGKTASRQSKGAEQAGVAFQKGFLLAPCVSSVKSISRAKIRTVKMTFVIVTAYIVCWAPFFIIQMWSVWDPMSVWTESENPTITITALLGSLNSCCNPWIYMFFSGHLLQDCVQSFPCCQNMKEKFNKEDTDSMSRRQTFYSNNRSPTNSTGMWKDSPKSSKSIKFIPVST

What is called IC50 is the concentration at which inhibition is half-maximal. As for “1-[(N1-Piperidinocarbothioyl-(1-L-carboxymethyl-2-phenylamino)-4-yl]-3-(3-aminopropyl)-1,3-dihydrobenzimidazol-2-one Hydrochloride [Compound 57]”, at human V1a receptor, the IC50 was found to be 482 nM. In addition, the “Cell-Based Functional activity V2 % Inh. @ 30” value at human V2 receptor [1] (30 μM compound) stood at 0% @ 30. Also, on human V2 receptor [2] (1.0 μM compound), the “V2@1.0, % Inh” value is 0%.
For `CCN(CC)CCn1c(=O)n(C2CCN(C(=S)NC(c3ccccc3)c3ccccc3)CC2)c2ccccc21` [Compound 35, 1-(N1-Piperidinocarbothioyldiphenylmethylamino-4-yl)-3-(2-diethyaminoethyl)-1,3-dihydrobenzimidazol-2-one], the values for the IC50 on human V1a receptor and at human V2 receptor [1] were 458 nM and 623 nM, respectively. Besides, on human V2 receptor [2] (1.0 μM compound), the inhibition at 1 µM stood at 44%.
Turning to `CCN(CC)CCn1c(=O)n(C2CCN(C(=S)NC(Cc3ccccc3)C(=O)OC)CC2)c2ccccc21` [Compound 42, 1-(N1-Piperidinocarbothioyl-(2-phenyl-1-L-carboxymethyl)amino-4-yl)-3-(2-diethyaminoethyl)-1,3-dihydrobenzimidazol-2-one], on human V1a receptor, the IC50 stood at 810 nM. For the same compound, on human V2 receptor [1] (HEK293, 10 μM compound, read-out: Cell-Based Functional activity V2 % Inh. @ 10), the inhibition at 10 µM came out at 0%. For the same compound, the inhibition at 1 µM at human V2 receptor [2] (1.0 μM compound) came to 0%.
In the case of `NCCCn1c(=O)n(C2CCN(C(=S)NC(c3ccccc3)c3ccccc3)CC2)c2ccccc21` [Compound 55, 1-[(N1-Piperidinocarbothioyldiphenylmethylamino)-4-yl]-3-(3-aminopropyl)-1,3-dihydrobenzimidazol-2-one Monohydrochloride], the IC50 at human V1a receptor is 139 nM; on human V2 receptor [1], 22800 nM; at human V2 receptor [2], 1250 nM.
As to `N=C(N)NCCCn1c(=O)n(C2CCN(C(=S)NC(c3ccccc3)c3ccccc3)CC2)c2ccccc21` [Compound 59, 1-[(N1-Piperidinocarbothioyldiphenylmethylamino)-4-yl]-3-(3-guanidinopropyl)-1,3-dihydrobenzimidazol-2-one], on human V1a receptor, the IC50 came to 240 nM. Moreover, on human V2 receptor [1] (HEK293, 30 μM compound, read-out: Cell-Based Functional activity V2 % Inh. @ 30), the inhibition at 30 µM was 0%. Besides, the inhibition at 1 µM at human V2 receptor [2] (1.0 μM compound) is 18%.
